In data set [1] the test system is A2780/Dx multidrug-resistant ovarian carcinoma.
Experimental: A2780/Dx cancer cells were injected subcutaneously (s.c.) in the right flank of CD1 nude mice (5×10^6/100 μL/mouse). Treatments started eleven days after cancer injection.
Mice were subdivided (10 mice/group) in the following experimental groups: doxorubicin was given intravenously according to the schedule q7dx3 and acetyl-L-carnitine according to the schedule qdx5/wx3w.
Acetyl L-carnitine was administered immediately before the agent given in combination.
To evaluate the anticancer activity, tumor diameters were measured with a Vernier caliper. The formula TV (mm^3)=[length (mm)×width (mm)^2]/2 was used, where the width and the length are the shortest and the longest diameters of each cancer, respectively. Efficacy of the molecule was evaluated as tumor volume inhibition (TVI %) according to the equation: % TVI=100-[(mean cancer weight of treated mice/mean cancer weight of control group)×100]. and Log10 cell kill (LCK) calculated by the formula LCK=(T−C)/3.32×DT, where T and C were the mean times (days) required for treated (T) and control (C) tumors, respectively, to reach 1 cm^3, and DT was the doubling time of control tumors. When tumors reached a volume of about 2 cm^3, mice were sacrificed by cervical dislocation.
In data set [2] the test system is NCI-H460 non-small cell lung carcinoma. The data set can be described thus: Antitumor effect of carboplatin with and without acetyl L-carnitine, s.c. xenograft. On the procedure: Treatments started three days after cancer injection. Mice were subdivided (8 mice/group) in the following experimental groups: vehicle receiving only sterile water, carboplatin 40 mg/kg, i.p. q4d/wx3w; acetyl L-carnitine (200 mg/kg po, qdx5/wx3w)+carboplatin.
Body weight recording was carried out through the study.

Data set [3] concerns tumour growth. To be noted: WO/2000/06134, cited from earlier work.
Data set [4] concerns NCI-H460 non-small cell lung carcinoma cells. The data set can be described thus: Antiproliferative activity of cisplatin with and without acetyl L-carnitine, MTT assay. Format: cell-based. How it is done: (§1) Moreover, the activity was also evaluated on two prostate tumor cell lines with p53 wild-type (LnCaP) or p53 null (PC3). […] The number of surviving cells was finally determined by the tetrazolium salt (MTT) assay, as described by Hansen M B et al. (Re-examination and further development of a precise and rapid dye method for measuring cell growth/cell kill. J. Immunol. Methods 119: 203-10, 1989). […] In this case the statistical comparison was performed by Mann-Whitney test.
(§2) To test the effects of the compounds on cell growth, tumor cells were seeded in 96-well tissue culture plates at approximately 10% confluence and were allowed to attach and recover for at least 24 h. […] Plates were kept at. 37° C. in incubator with 5% CO2 for 2 h for the formation of blu chrystals. The supernatant was removed and 100 μL/well of lysant medium were added. Plates were kept under stirring for 60 min. The survival cell was determined as optical density by a Multiskan spectrofluorimeter at 570 nm.
(Tetrazolium dyes change colour on reduction, which living cells bring about.)

The test system of data set [5] is A2780/Dx multidrug-resistant ovarian carcinoma cells. Described as above. It counts as cell-based. How it is done: as §1, §2
The subject of data set [6] is lung metastases. To be noted: WO/2000/06134; ALC orally 100 mg/kg; cited from earlier work.
Data set [7] has as its system SJSA-1 (with amplification of mdm2) osteosarcoma cells. The data set can be described thus: Antiproliferative activity of cisplatin with and without acetyl L-carnitine, MTT assay. It counts as cell-based. How it is done: as §1
(§3) To test the effects of the compounds on cell growth, tumor cells were seeded in 96-well tissue culture plates at approximately 10% confluence and were allowed to attach and recover for at least 24 h. Tumor cells were exposed to compounds for 72 h or 6 days in 0.1% FBS at 37° C., then medium culture was removed and 100 μL/well of medium were added containing 25 μL/well of a solution 5 mg/mL MTT (final 1 mg/mL). Plates were kept at. 37° C. in incubator with 5% CO2 for 2 h for the formation of blu chrystals. The supernatant was removed and 100 μL/well of lysant medium were added. Plates were kept under stirring for 60 min. The survival cell was determined as optical density by a Multiskan spectrofluorimeter at 570 nm.

Data set [8] relates to NCI-H1650 non-small cell lung carcinoma cells. The data set is described as above. Format: cell-based. How it is done:
as §1, §3

Data set [9] concerns LnCaP prostate carcinoma cells (p53 wild-type). The description is as above. It counts as cell-based. To be noted: acetyl L-carnitine 10 mM; ≧72 h of exposure; 0.1% FBS. How it is done: as §1, §3
Data set [10] deals with lung metastases. To be noted: ALC 100 mg/kg/day p.o.; cited from earlier work.
Data set [11] concerns NCI-H460 non-small cell lung carcinoma. The data set can be described thus: Antitumor activity of cisplatin in combination with L-carnitine, s.c. xenograft. It counts as in vivo. To be noted: L-carnitine 200 mg/kg po given chronically. How it is done:
Treatments started three days after tumor injection.
To evaluate the antitumor activity, tumor diameters were measured with a Vernier caliper.
When tumors reached a volume of 1-2 cm^3, mice were sacrificed by cervical dislocation. Body weight recording was carried out through the study and mortality was noted.

[12] abbreviates: day +24, doxorubicin 6 mg/kg iv, alone or with acetyl L-carnitine 200 mg/kg po.
Setting [13] is: day +31, carboplatin 40 mg/kg ip q4d/wx3w, alone or with acetyl L-carnitine 200 mg/kg po qdx5/wx3w.
Setting [14] is: acetyl L-carnitine 1 mM, same schedule and serum conditions.
The mark [15] stands for this setting: acetyl L-carnitine 10 mM, 72 h, medium with 10% FBS.
The mark [16] stands for this setting: acetyl L-carnitine 10 mM, ≧72 h of exposure, 0.1% FBS.

Results on five molecules are retold here after patent US20120093809A1, “USE OF ALKANOYL L-CARNITINE IN COMBINATION WITH CHEMOTHERAPEUTIC AGENTS FOR THE TREATMENT OF NEOPLASMS” (priority 2008, published 2012).

As for `COc1cccc2c1C(=O)c1c(O)c3c(c(O)c1C2=O)C[C@@](O)(C(=O)CO)C[C@@H]3O[C@H]1C[C@H](N)[C@H](O)[C@H](C)O1` [Doxorubicin, doxorubicin], in data set [1] (DT = 2.9 days, doxorubicin 6 mg/kg iv, alone or with acetyl L-carnitine 200 mg/kg po), the “LCK (1 cm^3)” value amounted to 0.7. Moreover, in data set [1] (setting [12]), the “TV ± SE +24” value is recorded as 1059 ± 195 mm^3 and the “TVI % ± SE +24” value is “**60 ± 11%”. Further, the Leth. in data set [1] (dead/total mice, doxorubicin 6 mg/kg iv, alone or with acetyl L-carnitine 200 mg/kg po) is recorded as 0/10. This molecule also showed a BWL % max in data set [1] (doxorubicin 6 mg/kg iv q7dx3, alone or with acetyl L-carnitine 200 mg/kg po qdx5/wx3w) of 0%.
Take `N.N.O=C([O-])C1(C(=O)[O-])CCC1.[Pt+2]` [CARBOPLATIN, Carboplatin]: the “LCK (1 cm^3)” value in data set [2] (Log10 cell kill, DT = 3.6 days, carboplatin 40 mg/kg ip, alone or with acetyl L-carnitine 200 mg/kg po) was 0.66. In addition, the BWL % in data set [2] (carboplatin 40 mg/kg ip q4d/wx3w, alone or with acetyl L-carnitine 200 mg/kg po qdx5/wx3w) came to 1%. Besides, in data set [2] (setting [13]), the “TV ± SE +31” value is recorded as “*704 ± 254 mm^3”. For the same molecule, the “TVI % +31” value is given as 48% in data set [2] (setting [13]) and “about 48%” in data set [2] (day +31, carboplatin 40 mg/kg ip q4d/wx3w, alone or with acetyl L-carnitine 200 mg/kg po qdx5/wx3w, listed as carboplatin). In [2] (dead/total mice, carboplatin 40 mg/kg ip q4d/wx3w, alone or with acetyl L-carnitine 200 mg/kg po qdx5/wx3w), the LETHAL is on record as 0/8.
As to `CC(=O)O[C@H](CC(=O)[O-])C[N+](C)(C)C` [acetyl L-carnitine], in [3] (ALC orally 100 mg/kg), the “effect on tumour growth” value was “no effect on tumour growth”. In addition, the “potentiation of the cytotoxic activity of cisplatin” value (“potentiation” for short) in data set [4] (setting [14]) is recorded as “ineffective”; in data set [4] (setting [15]), “failed to increase cisplatin anti-proliferative activity”; in data set [4] (setting [16]), “able to potentiate the cytotoxic activity of cisplatin”; in data set [5] (setting [14]), “ineffective”; in data set [5] (setting [15]), “failed to increase cisplatin anti-proliferative activity”; in [5] (setting [16]) it was “able to potentiate the cytotoxic activity of cisplatin”. The “potentiation” value in data set [7] (setting [14]) was “ineffective”; in [7] (setting [15]), “failed to increase cisplatin anti-proliferative activity”; in data set [7] (acetyl L-carnitine 10 mM, 72 h of exposure, 0.1% FBS), “able to potentiate the cytotoxic activity of cisplatin”; in data set [8] (setting [14]), “ineffective”; in data set [8] (setting [15]), “failed to increase cisplatin anti-proliferative activity”; in [8] (setting [16]), “able to potentiate the cytotoxic activity of cisplatin”. Further, in [9], the “potentiation” value is listed as “able to potentiate the cytotoxic activity of cisplatin”. Further, the “effect on the formation of lung metastases” value in data set [6] is on record as “significant inhibitory effect on the formation of lung metastases”. In [10], the “protection from toxicity of the antitumor drug” value was “protects the mice from the lethal toxicity and from the neurotoxicity”.
For `CC(=O)O[C@H]1C(=O)[C@@]2(C)[C@H]([C@H](OC(=O)c3ccccc3)[C@]3(O)C[C@H](OC(=O)[C@H](O)[C@@H](NC(=O)c4ccccc4)c4ccccc4)C(C)=C1C3(C)C)[C@]1(OC(C)=O)CO[C@@H]1C[C@@H]2O` [Paclitaxel], the TVI in [3] (ALC orally 100 mg/kg where combined) is 88%.
Turning to `C[N+](C)(C)C[C@H](O)CC(=O)[O-]` [L-carnitine], the “potentiation” value in data set [11] is “not able to potentiate the cytotoxic activity of cisplatin”.
